Experimental data from patent publication US7754243B2, “Aqueous suspension of nanoscale drug particles from supercritical fluid processing” (Clemson University Research Foundation, priority 2004, dated 2010).

Experiments:
[1] = Stability of the product aqueous suspension against precipitation; assay type: physicochemical; settings: for time until precipitation appeared in the suspension: receiving solution neat water
Experimental: (§1) A system similar to that illustrated in FIG. 1 was utilized to form aqueous suspensions of Ibuprofen particles. Specifically, a solution (0.25 mg/mL) of Ibuprofen (available from Sigma-Aldrich Corporation) in liquid carbon dioxide (high-purity, SFC grade obtained from Air Products Corporation) was prepared in the syringe pump 10. The solution was pushed through the heating unit 14 to reach the desired supercritical temperature of 40° C. before reaching the expansion nozzle 16. The rapid expansion was carried out at a pre-expansion pressure of 200 bar through a 50 μm orifice into an aqueous solution. FIG. 2A is an SEM analysis of the precipitate obtained when the receiving solution in the expansion chamber 18 was neat water.

[2] = Statistical analysis of SEM images of nanoparticles in the product aqueous suspension; assay type: physicochemical; settings: for average nanoparticle size: Ibuprofen
Experimental: as §1, with “A specimen” for “FIG. 2A is an SEM analysis”, “product suspension was prepared for SEM imaging by depositing a few drops of the dilute nanoparticle aqueous suspension onto a carbon tape, followed by drying under ambient condition and then coating with platinum before imaging. SEM images were” for “precipitate”, “on a Hitachi S-4700 Field-Emission SEM system.” for “when the receiving solution in the expansion chamber 18 was neat water.”

| stability of product suspension ([1]; receiving solution aqueous SDS, 3.3 mg/mL) | time until precipitation appeared in the suspension [1] [min] | change in nanoparticle size on increase of drug loading and PVP concentration ([2]; Ibuprofen loading 0.25 to 0.83 mg/mL, PVP concentration 0.5 to 3.3 mg/mL) | average size in diameter ([2]; Ibuprofen nanoparticles, receiving solution aqueous PVP (Mw≈40,000), pre-expansion 40° C., 200 bar) [nm] | average size in diameter ([2]; Ibuprofen nanoparticles, receiving solution aqueous SDS, 3.3 mg/mL) [nm] | average nanoparticle size ([2]; PVP receiving solution, pre-expansion temperature 120° C.) [nm] | average nanoparticle size ([2]; high-molecular weight PVP (Mw≈360,000)) [nm] | change in average particle size on variation of drug/polymer weight ratio ([2]; PVP, drug/polymer weight ratio varied from 0.3 to 4 (Ibuprofen) or 0.3 to 2 (Naproxen)) | average size in diameter ([2]; Naproxen nanoparticles, 2 wt % methanol co-solvent, receiving solution 0.5 mg/mL PVP (Mw≈40,000)) [nm] | Structure (SMILES) | stability of product suspension ([1]; receiving solution aqueous PVP (Mw≈40,000)) |
| --- | --- | --- | --- | --- | --- | --- | --- | --- | --- | --- |
| remained stable without precipitation | ≤ 15 | no significant changes | 40 | 25 | 52 | 30 | no significant changes |  | CC(C)Cc1ccc(C(C)C(=O)O)cc1 (centres unmarked) [Ibuprofen] | no sign of instability after several days |
|  | ≤ 15 |  |  |  |  |  |  | 64 | COc1ccc2cc([C@H](C)C(=O)O)ccc2c1 [Naproxen] |  |
